# Assay results published in ChEMBL document CHEMBL4371069, “Click chemistry for improvement in selectivity of quinazoline-based kinase inhibitors for mutant epidermal growth factor receptors” (Bioorg Med Chem Lett, 2019).
# What was measured:
# [1] = target: Epidermal growth factor receptor (Homo sapiens, UniProt P00533); assay type: ADME, cell-based, Sf21
# Description: Inhibition of human N-terminal GST-tagged EGFR kinase domain (696 to end residues) expressed in baculovirus infected sf21 cells using poly(Glu, Tyr) 4:1 as substrate
# [2] = target: Epidermal growth factor receptor (Homo sapiens, UniProt P00533, L858R/T790M); assay: biochemical; assay type: cell-based, Sf21
# Epidermal growth factor receptor (Homo sapiens, UniProt P00533, L858R/T790M), sequence (P00533 25-1210 T790M/L858R limits assumed): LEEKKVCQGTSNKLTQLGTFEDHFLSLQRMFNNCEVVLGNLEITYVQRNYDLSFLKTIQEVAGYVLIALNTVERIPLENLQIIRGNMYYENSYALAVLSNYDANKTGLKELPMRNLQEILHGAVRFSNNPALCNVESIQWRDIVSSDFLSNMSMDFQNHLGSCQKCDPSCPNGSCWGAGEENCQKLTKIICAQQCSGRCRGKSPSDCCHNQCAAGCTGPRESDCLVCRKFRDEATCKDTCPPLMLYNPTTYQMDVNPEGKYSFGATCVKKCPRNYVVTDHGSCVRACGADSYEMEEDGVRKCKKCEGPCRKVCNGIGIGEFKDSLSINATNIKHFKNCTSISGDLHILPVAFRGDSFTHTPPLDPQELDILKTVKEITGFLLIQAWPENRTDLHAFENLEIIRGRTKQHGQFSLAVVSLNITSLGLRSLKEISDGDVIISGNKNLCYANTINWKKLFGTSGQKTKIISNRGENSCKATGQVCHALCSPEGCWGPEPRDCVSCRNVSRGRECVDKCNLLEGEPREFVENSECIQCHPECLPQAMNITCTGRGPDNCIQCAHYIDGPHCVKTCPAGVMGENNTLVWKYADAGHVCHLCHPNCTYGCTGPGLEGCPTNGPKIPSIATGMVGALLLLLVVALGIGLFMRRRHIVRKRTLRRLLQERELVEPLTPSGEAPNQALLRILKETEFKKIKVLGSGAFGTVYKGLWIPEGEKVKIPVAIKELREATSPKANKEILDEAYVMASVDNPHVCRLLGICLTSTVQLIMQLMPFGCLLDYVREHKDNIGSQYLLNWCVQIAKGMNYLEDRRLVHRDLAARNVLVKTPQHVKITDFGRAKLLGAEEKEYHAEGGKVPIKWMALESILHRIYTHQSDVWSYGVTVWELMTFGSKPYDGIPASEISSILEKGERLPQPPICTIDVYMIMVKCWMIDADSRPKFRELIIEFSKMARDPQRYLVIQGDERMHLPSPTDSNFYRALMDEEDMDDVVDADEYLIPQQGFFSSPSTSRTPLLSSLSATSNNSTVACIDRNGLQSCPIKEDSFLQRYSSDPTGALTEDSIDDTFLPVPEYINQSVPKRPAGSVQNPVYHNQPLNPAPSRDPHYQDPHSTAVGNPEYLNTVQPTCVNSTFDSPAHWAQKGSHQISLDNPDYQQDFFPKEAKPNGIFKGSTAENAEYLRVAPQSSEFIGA
# [3] = target: Receptor tyrosine-protein kinase erbB-2 (Homo sapiens, UniProt P04626); assay: Inhibition of human C-terminal His6-tagged ERBB2 (676 to end residues) expressed in baculovirus infected sf21 cells using poly(Glu, Tyr) 4:1 as substrate
# Receptor tyrosine-protein kinase erbB-2, sequence (P04626 whole entry): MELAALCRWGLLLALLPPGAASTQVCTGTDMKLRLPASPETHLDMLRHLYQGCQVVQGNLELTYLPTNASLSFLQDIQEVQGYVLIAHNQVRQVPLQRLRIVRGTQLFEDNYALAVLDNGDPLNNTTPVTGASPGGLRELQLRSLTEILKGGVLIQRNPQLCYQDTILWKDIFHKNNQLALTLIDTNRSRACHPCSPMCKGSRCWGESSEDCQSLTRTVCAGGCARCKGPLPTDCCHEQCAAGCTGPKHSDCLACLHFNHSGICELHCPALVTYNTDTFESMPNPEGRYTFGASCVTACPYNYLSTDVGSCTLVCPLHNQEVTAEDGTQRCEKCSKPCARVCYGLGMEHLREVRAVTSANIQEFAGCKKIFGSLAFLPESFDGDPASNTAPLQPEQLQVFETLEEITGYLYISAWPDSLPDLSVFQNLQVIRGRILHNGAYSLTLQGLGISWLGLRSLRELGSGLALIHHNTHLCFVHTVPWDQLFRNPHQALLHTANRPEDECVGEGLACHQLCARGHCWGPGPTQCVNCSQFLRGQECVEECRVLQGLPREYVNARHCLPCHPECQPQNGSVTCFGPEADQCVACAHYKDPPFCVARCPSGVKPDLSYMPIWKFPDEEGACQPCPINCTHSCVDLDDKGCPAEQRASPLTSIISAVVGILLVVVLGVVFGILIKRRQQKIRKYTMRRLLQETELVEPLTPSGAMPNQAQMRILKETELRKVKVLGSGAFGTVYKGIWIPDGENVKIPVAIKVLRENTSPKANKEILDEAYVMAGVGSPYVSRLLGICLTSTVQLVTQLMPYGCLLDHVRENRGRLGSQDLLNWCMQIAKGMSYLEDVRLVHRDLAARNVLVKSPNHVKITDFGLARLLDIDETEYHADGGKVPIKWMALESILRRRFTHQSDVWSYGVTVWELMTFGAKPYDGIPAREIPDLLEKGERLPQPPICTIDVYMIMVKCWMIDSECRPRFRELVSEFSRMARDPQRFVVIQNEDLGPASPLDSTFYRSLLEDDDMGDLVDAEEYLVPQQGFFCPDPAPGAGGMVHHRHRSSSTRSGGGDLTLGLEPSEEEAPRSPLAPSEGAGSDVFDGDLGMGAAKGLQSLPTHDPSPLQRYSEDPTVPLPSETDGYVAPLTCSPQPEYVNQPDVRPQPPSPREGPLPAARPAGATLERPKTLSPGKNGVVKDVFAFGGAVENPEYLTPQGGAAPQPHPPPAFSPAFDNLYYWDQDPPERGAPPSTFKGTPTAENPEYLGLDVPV
# NCI-H1975 = assay: Antiproliferative activity against human NCI-H1975 cells harboring EGFR T790M/L858R double mutant after 72 hrs by EZ-Cytox assay; assay type: functional, cell-based; details: NCI-H1975, 72 h
# PC-9 = assay: Antiproliferative activity against human PC9 cells harboring EGFR exon-19 del mutant after 72 hrs by EZ-Cytox assay; assay type: functional, cell-based; details: PC-9, 72 h
# A549 = assay: Antiproliferative activity against human A549 cells harboring wild-type EGFR after 72 hrs by EZ-Cytox assay; assay type: ADME, cell-based; details: A549, 72 h
# SK-BR-3 = assay: Antiproliferative activity against HER2-dependant human SKBR3 cells after 72 hrs by EZ-Cytox assay; assay type: ADME, cell-based; details: SK-BR-3, 72 h
# [4] = Safety index, ratio of compound IC50 to afatinib IC50 for antiproliferative activity against HER2-dependant human SKBR3 cells; assay type: cell-based; details: SK-BR-3 cells (HER2-dependent), read-out: Ratio IC50
# CYP1A2 = target: T1, CYP1A2 (Homo sapiens, UniProt P05177); assay: Inhibition of CYP1A2 in human liver microsomes assessed as residual activity at 10 uM using phenacetin as substrate preincubated for 5 mins followed by NADPH addition and measured after 15 mins by LC-MS/MS analysis relative to control; assay type: ADME; details: probe phenacetin, read-out: Activity
# T1 sequence (P05177 whole entry): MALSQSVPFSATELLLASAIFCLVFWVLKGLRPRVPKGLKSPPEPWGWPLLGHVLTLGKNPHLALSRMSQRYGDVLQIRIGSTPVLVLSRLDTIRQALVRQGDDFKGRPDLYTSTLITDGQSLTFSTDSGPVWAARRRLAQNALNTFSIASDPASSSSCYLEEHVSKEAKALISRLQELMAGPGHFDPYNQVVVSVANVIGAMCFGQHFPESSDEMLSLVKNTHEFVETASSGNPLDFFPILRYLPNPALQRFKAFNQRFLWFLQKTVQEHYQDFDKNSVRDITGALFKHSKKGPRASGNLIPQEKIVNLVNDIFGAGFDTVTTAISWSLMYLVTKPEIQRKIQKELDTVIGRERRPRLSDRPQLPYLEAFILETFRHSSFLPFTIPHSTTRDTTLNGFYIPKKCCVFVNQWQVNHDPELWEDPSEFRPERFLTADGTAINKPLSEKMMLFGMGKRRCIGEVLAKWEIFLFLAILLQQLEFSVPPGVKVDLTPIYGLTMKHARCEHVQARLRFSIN
# CYP2A6 = target: T2, CYP2A6 (Homo sapiens, UniProt P11509); assay: Inhibition of CYP2A6 in human liver microsomes assessed as residual activity at 10 uM using coumarin as substrate preincubated for 5 mins followed by NADPH addition and measured after 15 mins by LC-MS/MS analysis relative to control; assay type: ADME; details: probe coumarin, read-out: Activity
# T2 sequence (P11509 whole entry): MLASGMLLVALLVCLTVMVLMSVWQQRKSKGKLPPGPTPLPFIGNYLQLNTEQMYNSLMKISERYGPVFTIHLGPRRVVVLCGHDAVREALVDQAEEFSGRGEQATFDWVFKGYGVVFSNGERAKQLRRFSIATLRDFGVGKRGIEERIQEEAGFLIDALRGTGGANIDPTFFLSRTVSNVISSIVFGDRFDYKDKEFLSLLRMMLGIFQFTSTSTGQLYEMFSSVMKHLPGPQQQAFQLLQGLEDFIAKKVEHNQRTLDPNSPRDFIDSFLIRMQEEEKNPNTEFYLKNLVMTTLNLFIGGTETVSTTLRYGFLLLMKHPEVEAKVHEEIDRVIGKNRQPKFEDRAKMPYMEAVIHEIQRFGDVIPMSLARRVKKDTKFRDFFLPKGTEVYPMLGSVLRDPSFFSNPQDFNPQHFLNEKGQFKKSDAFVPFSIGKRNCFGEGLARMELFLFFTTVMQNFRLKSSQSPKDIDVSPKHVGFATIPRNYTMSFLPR
# CYP2B6 = target: T3, CYP2B6 (Homo sapiens, UniProt P20813); assay: Inhibition of CYP2B6 in human liver microsomes assessed as residual activity at 10 uM using bupropion as substrate preincubated for 5 mins followed by NADPH addition and measured after 15 mins by LC-MS/MS analysis relative to control; assay type: ADME; details: probe bupropion, read-out: Activity
# T3 sequence (P20813 whole entry): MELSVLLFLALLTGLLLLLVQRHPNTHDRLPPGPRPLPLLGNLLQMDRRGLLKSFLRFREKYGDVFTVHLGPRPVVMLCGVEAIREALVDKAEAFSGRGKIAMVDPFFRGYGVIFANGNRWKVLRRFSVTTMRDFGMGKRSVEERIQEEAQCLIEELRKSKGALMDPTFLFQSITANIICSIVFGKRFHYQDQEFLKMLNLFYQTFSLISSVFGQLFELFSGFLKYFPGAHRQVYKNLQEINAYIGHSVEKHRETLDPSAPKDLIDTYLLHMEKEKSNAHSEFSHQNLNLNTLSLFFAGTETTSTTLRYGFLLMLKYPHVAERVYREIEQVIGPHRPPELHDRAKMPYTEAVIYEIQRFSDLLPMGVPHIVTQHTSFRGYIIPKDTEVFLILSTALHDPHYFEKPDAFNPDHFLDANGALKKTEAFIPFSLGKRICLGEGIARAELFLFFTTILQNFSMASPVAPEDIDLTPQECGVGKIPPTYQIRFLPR
# CYP2C8 = target: T4, CYP2C8 (Homo sapiens, UniProt P10632); assay: Inhibition of CYP2C8 in human liver microsomes assessed as residual activity at 10 uM using amiodiaquine as substrate preincubated for 5 mins followed by NADPH addition and measured after 15 mins by LC-MS/MS analysis relative to control; assay type: ADME; details: probe amiodiaquine, read-out: Activity
# T4 sequence (P10632 whole entry): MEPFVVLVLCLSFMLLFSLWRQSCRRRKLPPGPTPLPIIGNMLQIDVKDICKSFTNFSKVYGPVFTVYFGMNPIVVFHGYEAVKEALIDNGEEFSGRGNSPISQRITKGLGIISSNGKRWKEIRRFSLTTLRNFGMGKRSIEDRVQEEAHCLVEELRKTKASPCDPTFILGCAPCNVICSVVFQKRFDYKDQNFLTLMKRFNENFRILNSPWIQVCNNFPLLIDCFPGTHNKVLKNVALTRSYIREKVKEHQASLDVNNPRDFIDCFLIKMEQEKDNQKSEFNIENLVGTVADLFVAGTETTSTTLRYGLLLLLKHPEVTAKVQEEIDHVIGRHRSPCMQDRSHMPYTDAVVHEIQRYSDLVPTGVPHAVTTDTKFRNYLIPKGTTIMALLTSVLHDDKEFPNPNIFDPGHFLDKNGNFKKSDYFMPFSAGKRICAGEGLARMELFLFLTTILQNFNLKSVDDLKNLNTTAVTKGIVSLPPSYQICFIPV
# CYP2C9 = CYP2C9 (Homo sapiens, UniProt P11712); assay: Inhibition of CYP2C9 in human liver microsomes assessed as residual activity at 10 uM using tolbutamide as substrate preincubated for 5 mins followed by NADPH addition and measured after 15 mins by LC-MS/MS analysis relative to control; assay type: ADME; details: probe tolbutamide, read-out: Activity
# CYP2C9, sequence (P11712 whole entry): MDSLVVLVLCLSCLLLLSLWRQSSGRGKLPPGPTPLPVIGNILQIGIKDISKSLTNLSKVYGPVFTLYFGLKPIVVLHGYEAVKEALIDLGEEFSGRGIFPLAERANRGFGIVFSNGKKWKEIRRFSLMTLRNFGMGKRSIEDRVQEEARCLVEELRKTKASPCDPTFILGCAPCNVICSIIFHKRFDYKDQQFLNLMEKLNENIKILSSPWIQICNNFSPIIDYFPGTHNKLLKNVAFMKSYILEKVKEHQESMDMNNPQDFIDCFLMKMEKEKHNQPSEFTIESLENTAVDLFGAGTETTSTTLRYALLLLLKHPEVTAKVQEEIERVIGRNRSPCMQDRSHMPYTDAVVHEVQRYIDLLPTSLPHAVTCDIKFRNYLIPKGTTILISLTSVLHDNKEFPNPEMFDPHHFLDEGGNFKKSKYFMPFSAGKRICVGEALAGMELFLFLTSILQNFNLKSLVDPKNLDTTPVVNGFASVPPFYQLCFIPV
# CYP2C19 = CYP2C19 (Homo sapiens, UniProt P33261); assay: Inhibition of CYP2C19 in human liver microsomes assessed as residual activity at 10 uM using S-mephenytoin as substrate preincubated for 5 mins followed by NADPH addition and measured after 15 mins by LC-MS/MS analysis relative to control; assay type: ADME; details: probe S-mephenytoin, read-out: Activity
# CYP2E1 = CYP2E1 (Homo sapiens, UniProt P05181); assay: Inhibition of CYP2E1 in human liver microsomes assessed as residual activity at 10 uM using chlorzoxazone as substrate preincubated for 5 mins followed by NADPH addition and measured after 15 mins by LC-MS/MS analysis relative to control; assay type: ADME; details: probe chlorzoxazone, read-out: Activity
# CYP3A4 = CYP3A4 (Homo sapiens, UniProt P08684); assay: Inhibition of CYP3A4 in human liver microsomes assessed as residual activity at 10 uM using midazolam as substrate preincubated for 5 mins followed by NADPH addition and measured after 15 mins by LC-MS/MS analysis relative to control; assay type: ADME; details: probe midazolam, read-out: Activity
# CYP3A4, sequence (P08684 whole entry): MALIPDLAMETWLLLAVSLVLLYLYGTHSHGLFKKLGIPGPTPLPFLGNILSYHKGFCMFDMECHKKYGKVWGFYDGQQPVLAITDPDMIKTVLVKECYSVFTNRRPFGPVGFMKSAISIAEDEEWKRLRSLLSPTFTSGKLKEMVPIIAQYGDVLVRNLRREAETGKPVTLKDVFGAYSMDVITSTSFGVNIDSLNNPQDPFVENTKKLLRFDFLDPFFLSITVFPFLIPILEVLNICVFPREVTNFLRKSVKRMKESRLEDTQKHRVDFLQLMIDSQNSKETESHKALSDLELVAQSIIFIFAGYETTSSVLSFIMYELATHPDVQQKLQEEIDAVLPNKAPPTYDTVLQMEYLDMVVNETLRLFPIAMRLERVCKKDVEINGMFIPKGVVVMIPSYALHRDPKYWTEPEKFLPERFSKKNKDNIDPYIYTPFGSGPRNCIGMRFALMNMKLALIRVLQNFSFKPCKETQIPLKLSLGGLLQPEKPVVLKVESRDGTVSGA
# HepG2 = assay: Cytotoxicity against human HepG2 cells after 24 hrs by LDH release assay; assay type: cell-based; details: HepG2, 24 h
# Epidermal growth factor receptor (Homo sapiens, UniProt P00533), sequence (P00533 whole entry): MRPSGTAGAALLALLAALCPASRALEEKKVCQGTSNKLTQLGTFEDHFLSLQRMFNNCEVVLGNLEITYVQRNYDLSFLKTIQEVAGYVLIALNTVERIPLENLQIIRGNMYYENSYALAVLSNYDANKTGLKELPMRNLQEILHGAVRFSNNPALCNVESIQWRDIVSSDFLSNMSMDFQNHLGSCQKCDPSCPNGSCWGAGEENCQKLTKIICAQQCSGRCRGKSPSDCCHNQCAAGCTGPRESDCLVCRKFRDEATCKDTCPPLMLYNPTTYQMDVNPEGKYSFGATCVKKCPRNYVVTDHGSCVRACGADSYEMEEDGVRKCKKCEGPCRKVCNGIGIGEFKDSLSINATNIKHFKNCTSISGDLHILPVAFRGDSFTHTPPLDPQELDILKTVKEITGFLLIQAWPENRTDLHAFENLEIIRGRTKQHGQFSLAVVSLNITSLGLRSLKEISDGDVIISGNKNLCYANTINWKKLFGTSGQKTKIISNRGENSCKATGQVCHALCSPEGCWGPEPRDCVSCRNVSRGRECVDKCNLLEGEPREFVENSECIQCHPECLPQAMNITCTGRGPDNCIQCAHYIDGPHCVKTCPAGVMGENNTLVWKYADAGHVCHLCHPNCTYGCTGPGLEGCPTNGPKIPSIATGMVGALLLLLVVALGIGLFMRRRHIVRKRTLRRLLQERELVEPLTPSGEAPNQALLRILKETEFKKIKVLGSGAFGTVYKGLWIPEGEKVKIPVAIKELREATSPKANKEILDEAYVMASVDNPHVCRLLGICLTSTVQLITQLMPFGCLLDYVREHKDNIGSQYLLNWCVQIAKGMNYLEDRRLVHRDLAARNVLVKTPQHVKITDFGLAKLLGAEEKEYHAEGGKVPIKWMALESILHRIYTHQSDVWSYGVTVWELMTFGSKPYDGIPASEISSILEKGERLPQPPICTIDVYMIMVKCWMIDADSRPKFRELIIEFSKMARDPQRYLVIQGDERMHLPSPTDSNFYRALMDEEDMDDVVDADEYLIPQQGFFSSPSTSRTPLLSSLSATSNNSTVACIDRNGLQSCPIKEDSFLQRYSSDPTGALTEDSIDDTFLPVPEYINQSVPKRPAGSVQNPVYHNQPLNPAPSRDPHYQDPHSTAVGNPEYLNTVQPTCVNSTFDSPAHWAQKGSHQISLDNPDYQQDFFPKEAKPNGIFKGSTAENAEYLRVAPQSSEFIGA
SMILES,IC50 [1],IC50 [2],IC50 [3],IC50 (NCI-H1975),IC50 (PC-9),IC50 (A549),IC50 (SK-BR-3),further results
C=CC(=O)Nc1cc2c(Nc3ccc(F)c(Cl)c3)ncnc2cc1OCc1cn(Cc2ccc(C)cc2)nn1,105 nM,15 nM,158 nM,417 nM,1.3 nM,737 nM,216 nM,selectivity ratio [4]: > 95
C=CC(=O)Nc1cc2c(Nc3ccc(F)c(Cl)c3)ncnc2cc1OCc1cn(CCCO)nn1,12 nM,4 nM,67 nM,1370 nM,1.5 nM,,,
C#CCOc1cc2ncnc(Nc3ccc(F)c(Cl)c3)c2cc1NC(=O)C=C,,,,1590 nM,2.9 nM,> 10000 nM,106 nM,
CC(=O)N1CCN(c2ccc(OCC3COC(Cn4ccnc4)(c4ccc(Cl)cc4Cl)O3)cc2)CC1 (configuration not stated) [KETOCONAZOLE],,,,,,,,"activity at 0.25 h, 10 µM (CYP1A2): 92.5%; activity at 0.25 h, 10 µM (CYP2A6): 91.8%; activity at 0.25 h, 10 µM (CYP2B6): 84.1%; activity at 0.25 h, 10 µM (CYP2C8): 95.6%; activity at 0.25 h, 10 µM (CYP2C9): 85%; activity at 0.25 h, 10 µM (CYP2C19): 85.8%; activity at 0.25 h, 10 µM (CYP2E1): 98.1%; activity at 0.25 h, 10 µM (CYP3A4): 35.7%"
C=CC(=O)Nc1cc2c(Nc3ccc(F)c(Cl)c3)ncnc2cc1OCc1cn(Cc2ccccc2F)nn1,65 nM,12 nM,78 nM,619 nM,1.2 nM,,,
C=CC(=O)Nc1cc2c(Nc3ccc(F)c(Cl)c3)ncnc2cc1OCc1cn(CCc2ccccc2)nn1,41 nM,12 nM,448 nM,2090 nM,3.6 nM,,,
CN(C)C/C=C/C(=O)Nc1cc2c(Nc3ccc(F)c(Cl)c3)ncnc2cc1O[C@H]1CCOC1 [AFATINIB],,,,131 nM,0.1 nM,3770 nM,1.2 nM,
C=CC(=O)Nc1cc2c(Nc3ccc(F)c(Cl)c3)ncnc2cc1OCc1cn(Cc2ccccc2)nn1,39 nM,8 nM,90 nM,808 nM,1.2 nM,,,
C=CC(=O)Nc1cc2c(Nc3ccc(F)c(Cl)c3)ncnc2cc1OCc1cn(CCCN2CCOCC2)nn1,12 nM,4 nM,54 nM,341 nM,0.6 nM,8160 nM,19 nM,
C=CC(=O)Nc1cc2c(Nc3ccc(F)c(Cl)c3)ncnc2cc1OCc1cn(-c2ccccc2)nn1,74 nM,26 nM,471 nM,4780 nM,32 nM,,,
COC(=O)C1=C(C)NC(C)=C(C(=O)OC)C1c1ccccc1[N+](=O)[O-] [NIFEDIPINE],,,,,,,,IC50 (HepG2): 9400 nM
C=CC(=O)Nc1cc2c(Nc3ccc(F)c(Cl)c3)ncnc2cc1OCc1cn(Cc2ccc(OC)cc2)nn1,41 nM,5 nM,212 nM,701 nM,1.1 nM,,,
